Source: publication PMC10167667, “Structural and functional characterization of a multi-domain GH92 α-1,2-mannosidase from Neobacillus novalis” (Acta Crystallographica. Section D, Structural Biology, 2023)

Molecular target: T1, NnGH92 (Neobacillus novalis, UniProt A0A7R9KAR8)
T1 construct: full-length five-domain enzyme without native signal peptide (Ser34-Asp1411); Alcalase signal peptide then N-terminal HHHHHHPR tag kept; secreted from Bacillus subtilis
Assay: X-ray crystal structure, […] Å
Format: binding
Conditions: co-crystallised with 5 mM mannoimidazole and 8 mM CaCl2, pH 6.6; catalytic active site (-1 subsite, Ca2+); second site in N-terminal CBM32 (chain A)

T1 sequence (A0A7R9KAR8 entry or part of it): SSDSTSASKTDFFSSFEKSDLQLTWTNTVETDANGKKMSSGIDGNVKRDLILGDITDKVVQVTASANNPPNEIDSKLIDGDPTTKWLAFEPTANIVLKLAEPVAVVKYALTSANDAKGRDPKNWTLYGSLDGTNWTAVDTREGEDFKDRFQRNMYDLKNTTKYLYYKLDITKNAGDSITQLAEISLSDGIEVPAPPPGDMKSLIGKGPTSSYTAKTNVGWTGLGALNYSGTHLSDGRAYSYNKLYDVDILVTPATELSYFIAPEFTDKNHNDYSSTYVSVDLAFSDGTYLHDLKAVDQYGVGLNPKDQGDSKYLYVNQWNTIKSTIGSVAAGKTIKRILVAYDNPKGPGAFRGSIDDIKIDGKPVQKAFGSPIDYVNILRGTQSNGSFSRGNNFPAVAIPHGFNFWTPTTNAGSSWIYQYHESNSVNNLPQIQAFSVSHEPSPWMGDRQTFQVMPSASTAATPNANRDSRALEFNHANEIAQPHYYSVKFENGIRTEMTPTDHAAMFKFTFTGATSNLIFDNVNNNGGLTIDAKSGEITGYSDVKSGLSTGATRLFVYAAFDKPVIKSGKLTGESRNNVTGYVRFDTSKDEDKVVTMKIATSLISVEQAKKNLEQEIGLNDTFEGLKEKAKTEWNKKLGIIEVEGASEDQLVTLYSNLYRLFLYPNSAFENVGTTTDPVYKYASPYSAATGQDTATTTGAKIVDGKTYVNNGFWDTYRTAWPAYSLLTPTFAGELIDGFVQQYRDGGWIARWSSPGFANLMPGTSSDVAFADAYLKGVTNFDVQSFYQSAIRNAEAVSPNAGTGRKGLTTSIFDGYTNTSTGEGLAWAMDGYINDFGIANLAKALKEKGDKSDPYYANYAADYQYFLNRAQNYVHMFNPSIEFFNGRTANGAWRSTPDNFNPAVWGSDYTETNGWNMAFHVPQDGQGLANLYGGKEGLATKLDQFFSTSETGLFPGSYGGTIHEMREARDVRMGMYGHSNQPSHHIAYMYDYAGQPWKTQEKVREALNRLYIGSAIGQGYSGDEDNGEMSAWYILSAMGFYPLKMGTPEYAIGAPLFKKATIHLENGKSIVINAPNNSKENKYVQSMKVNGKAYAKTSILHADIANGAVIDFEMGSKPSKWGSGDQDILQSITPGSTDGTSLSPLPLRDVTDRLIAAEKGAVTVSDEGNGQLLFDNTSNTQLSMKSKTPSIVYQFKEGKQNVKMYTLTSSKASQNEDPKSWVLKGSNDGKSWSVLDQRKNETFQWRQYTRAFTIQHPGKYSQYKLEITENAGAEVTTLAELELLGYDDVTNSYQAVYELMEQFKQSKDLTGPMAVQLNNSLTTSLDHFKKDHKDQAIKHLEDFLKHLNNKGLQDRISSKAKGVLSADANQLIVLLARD

OC[C@@H]1[C@@H](O)[C@H](O)[C@H](O)c2nccn21 [mannoimidazole]
X-ray crystal structure, 2.3 Å: solved in complex with the mannosidase inhibitor mannoimidazole (ManI; PDB entry 7nsn
